Experiments:
[1] = Absorption spectra of dye alone; format: physicochemical; conditions: for ε: in M-1·cm-1 (unit assumed)
Experimental: (§1) Stock solutions (8 mM) of each dye were prepared by dissolving each compound in dimethylsulfoxide (DMSO). Stock dye solutions were diluted to a desired concentration in tris-EDTA (TE) buffer (10 mM Tris, 1 mM EDTA, pH 8.0) immediately prior to use.
[…] […] Optical densities were determined at the absorbance maxima and the extinction coefficients were calculated using Beer's law.

40mer dsDNA [2] = test: Fluorescence enhancement of dye with 40mer dsDNA; format: binding
λDNA = test: Fluorescence enhancement of dye with λDNA; format: binding
Experimental: as §1
(§2) Stock solutions of λDNA and 40mer synthetic oligonucleotides (dsDNA and ssDNA), each at a concentration of 40 μM, were prepared in TE buffer. All DNA concentrations described are in base pairs of nucleotides. The DNA stock solutions were diluted to a desired concentration in TE buffer before being mixed with diluted dye solutions.
(§3) Fluorescence enhancement measurements of each dye were obtained by incubating dyes with λDNA, 40mer dsDNA, or 40mer ssDNA at a final concentration of 0.8 μM dye and 3.2 μM DNA for one minute. Fluorescence scans of the samples were performed with excitation wavelengths corresponding to the absorption maxima of the dyes. The resulting fluorescence intensities were compared to fluorescence intensities of Thiazole Orange (TO) and a compound equivalent to SYBR Green without the side chain (V02-06101), shown below,
(§4) [drawing 15] binding to λDNA, 40mer dsDNA, or 40mer ssDNA at a final concentration of 0.8 μM TO and 3.2 μM DNA for one minute, the same as for the tested dyes. The discrimination ratio between dsDNA and ssDNA was calculated by comparing the fluorescence intensities.

40mer dsDNA [3] = test: Fluorescence enhancement of dye with 40mer dsDNA; format: binding; remark: listed apart in the source
Experimental: as §1, §2, §3, §4

[4] = 0.8 μM dye, 3.2 μM DNA, one minute

CCN(CC)c1ccc2c(/C=C3\Oc4ccccc4N3CC)cc(-c3ccccc3)[o+]c2c1 [Dye V02-06188]
λex ([1]; Ethanol): 520 nm | ε ([1]; Ethanol): 58,000 | λex ([1]; TE Buffer, 8 μM dye): 499 nm | ε ([1]; TE Buffer, 8 μM dye): 20,444 | binding preference dsDNA over ssRNA (40mer dsDNA [2]): slight preference for binding to dsDNA over binding to ssRNA | Fluorescence relative to TO (λDNA; [4]): 0.6 | Fluorescence λ DNA/ssDNA (λDNA; [4]): 1.5 | Ratio λ DNA/ss (λDNA; fluorescence λ DNA vs ss-DNA): 2 | Relative Fluorescent Intensity (λDNA; λ DNA, TO = 1.0): 0.6 | Relative Fluorescent Intensity (40mer dsDNA [3]; 40-mer ds-DNA, TO = 1.0): 0.6 | Ratio ds/ss (40mer dsDNA [3]; fluorescence 40-mer ds-DNA vs ss-DNA): 1.5
